Experimental data published in ChEMBL document CHEMBL4819024, “Synthesis and evaluation of andrographolide derivatives as potent anti-osteoporosis agents in vitro and in vivo” (Eur J Med Chem, 2021).
Activity calls are given as the source filed them. The rule behind the calls is not given here.

Legend:
[1] = Toxicity in OVX-induced bone loss C57BL/6 mouse model assessed as effect on serum AST level at 10 mg/kg, po QD for 4 weeks; assay type: organism-based; details: in vivo, 672 h, dose 10 mg/kg/day
[2] = molecular target: Transcription factor p65 (Mus musculus) (UniProt Q04207); assay: Inhibition of RANKL-induced NFkappaB signaling pathway in mouse RAW264.7 cells assessed as reduction in NFkappaB p65 nuclear translocation at 10 uM preincubated for 4 hrs followed by RANKL stimulation for 10 mins and measured by DAPI staining based immunofluorescence analysis; assay type: cell-based; details: time 250.0 min
[3] = Toxicity in OVX-induced bone loss C57BL/6 mouse model assessed as effect on liver morphology at 10 mg/kg, po QD for 4 weeks; assay type: organism-based; details: in vivo, 672 h, dose 10 mg/kg/day
[4] = Toxicity in OVX-induced bone loss C57BL/6 mouse model assessed as effect on serum TG level at 10 mg/kg, po QD for 4 weeks; assay type: organism-based; details: in vivo, 672 h, dose 10 mg/kg/day
BMMC [5] = assay: Anti-osteoporosis activity in C57BL/6 mouse BMM cells assessed as inhibition of M-CSF/RANKL-induced osteoclastogenesis by measuring reduction in size and number of osteoclasts incubated for 5 days with media replenishment for every 48 hrs measured by TRAP-staining based analysis; assay type: functional, cell-based; details: dose 0.03-10 µM, time 5.0 day
Mus musculus [6] = assay: Antiosteoporotic activity against OVX-induced bone loss C57BL/6 mouse model assessed as increase in trabecular bone mass in femoral metaphysis at 10 mg/kg, po QD for 4 weeks by microCT analysis; assay type: functional, organism-based; details: dose 10.0 mg/kg/day
C3H 10T1/2 [7] = assay: Induction of osteoblast differentiation in mouse C3H10T1 /2 cells assessed as increase in ALP expression at 1 to 10 uM measured after 7 days by ALP staining based assay; assay type: functional, cell-based; details: dose 1-10 µM, time 7.0 day
BMMC [8] = assay: Downregulation of osteoclastogenesis-associated gene expression in C57BL/6 mouse BMM cells assessed as inhibition of M-CSF/RANKL-induced TRAcP expression at 5 uM after 5 days by qRT-PCR analysis; assay type: functional, cell-based; details: time 5.0 day
Mus musculus [9] = assay: Antiosteoporotic activity against OVX-induced bone loss C57BL/6 mouse model assessed as increase in trabecular number in femoral metaphysis at 10 mg/kg, po QD for 4 weeks; assay type: functional, organism-based; details: dose 10.0 mg/kg/day
C3H 10T1/2 [10] = assay: Induction of osteoblast differentiation in mouse C3H10T1/2 cells assessed as increase in calcium nodule formation at 1 to 10 uM measured after 14 days by alizarin red staining assay; assay type: functional, cell-based; details: dose 1-10 µM, time 14.0 day
Mus musculus [11] = assay: Antiosteoporotic activity against OVX-induced bone loss C57BL/6 mouse model assessed as decrease in trabecular spacing in femoral metaphysis at 10 mg/kg, po QD for 4 weeks; assay type: functional, organism-based; details: dose 10.0 mg/kg/day
BMMC [12] = assay: Cytotoxicity against C57BL/6 mouse BMM cells assessed as reduction in cell viability at 30 uM measured after 48 hrs in presence of M-CSF by CCK8 assay; assay type: cell-based
BMMC [13] = assay: Downregulation of osteoclastogenesis-associated gene expression in C57BL/6 mouse BMM cells assessed as inhibition of M-CSF/RANKL-induced NFATc1 expression at 5 uM after 5 days by qRT-PCR analysis; assay type: functional, cell-based; details: time 5.0 day
[14] = Toxicity in OVX-induced bone loss C57BL/6 mouse model assessed as effect on serum GLU level at 10 mg/kg, po QD for 4 weeks; assay type: organism-based; details: in vivo, 672 h, dose 10 mg/kg/day
[15] = Toxicity in OVX-induced bone loss C57BL/6 mouse model assessed as effect on spleen morphology at 10 mg/kg, po QD for 4 weeks; assay type: organism-based; details: in vivo, 672 h, dose 10 mg/kg/day
BMMC [16] = assay: Downregulation of osteoclastogenesis-associated gene expression in C57BL/6 mouse BMM cells assessed as inhibition of M-CSF/RANKL-induced CTSK expression at 5 uM after 5 days by qRT-PCR analysis; assay type: functional, cell-based; details: time 5.0 day
[17] = Toxicity in OVX-induced bone loss C57BL/6 mouse model assessed as effect on serum LDH level at 10 mg/kg, po QD for 4 weeks; assay type: organism-based; details: in vivo, 672 h, dose 10 mg/kg/day
BMMC [18] = assay: Anti-osteoporosis activity in C57BL/6 mouse BMM cells assessed as inhibition of M-CSF/RANKL-induced bone resorption at 10 uM after 48 hrs by hydroxyapatite assay using Leica inverted microscope; assay type: functional; details: C57BL/6, BMMC
[19] = Toxicity in OVX-induced bone loss C57BL/6 mouse model assessed as effect on serum creatinine level at 10 mg/kg, po QD for 4 weeks; assay type: organism-based; details: in vivo, 672 h, dose 10 mg/kg/day
[20] = Toxicity in OVX-induced bone loss C57BL/6 mouse model assessed as effect on serum CK level at 10 mg/kg, po QD for 4 weeks; assay type: organism-based; details: in vivo, 672 h, dose 10 mg/kg/day
Mus musculus [21] = assay: Antiosteoporotic activity against OVX-induced bone loss C57BL/6 mouse model assessed as decrease in osteocalcin secretion in serum at 10 mg/kg, po QD for 4 weeks; assay type: functional, organism-based; details: dose 10.0 mg/kg/day
RAW264.7 [22] = assay: Inhibition of RANKL-induced NFkappaB signaling pathway in mouse RAW264.7 cells assessed as reduction in IkappaB alpha degradation at 10 uM preincubated for 4 hrs followed by RANKL stimulation for 10 mins and measured by Western blot analysis; assay type: cell-based; details: time 250.0 min
BMMC [23] = assay: Anti-osteoporosis activity in C57BL/6 mouse BMM cells assessed as inhibition of M-CSF/RANKL-induced bone resorption by measuring suppression of reabsorbing pits formation after 48 hrs by hydroxyapatite assay using Leica inverted microscope; assay type: functional, cell-based; details: dose 1-10 µM
[24] = Toxicity in OVX-induced bone loss C57BL/6 mouse model assessed as effect on lung morphology at 10 mg/kg, po QD for 4 weeks; assay type: organism-based; details: in vivo, 672 h, dose 10 mg/kg/day
[25] = molecular target: MAP kinase p38 (Mus musculus) (UniProt P47811+O08911+Q9WUI1+Q9Z1B7); assay: Inhibition of RANKL-induced p38 phosphorylation in mouse RAW264.7 cells at 1 to 10 uM pretreated for 4 hrs prior to RANKL stimulation for 20 mins by western blot analysis; assay type: cell-based; details: dose 1-10 µM, time 260.0 min
BMMC [26] = assay: Downregulation of osteoclastogenesis-associated gene expression in C57BL/6 mouse BMM cells assessed as inhibition of M-CSF/RANKL-induced MMP9 expression at 5 uM after 5 days by qRT-PCR analysis; assay type: functional, cell-based; details: time 5.0 day
RAW264.7 [27] = assay: Inhibition of RANKL-induced NFkappaB signaling pathway in mouse RAW264.7 cells assessed as reduction in IkappaB alpha phosphorylation at 10 uM preincubated for 4 hrs followed by RANKL stimulation for 10 mins and measured by Western blot analysis; assay type: cell-based; details: time 250.0 min
RAW264.7 [28] = assay: Inhibition of RANKL-induced ERK phosphorylation in mouse RAW264.7 cells at 1 to 10 uM pretreated for 4 hrs prior to RANKL stimulation for 20 mins by western blot analysis; assay type: cell-based; details: dose 1-10 µM, time 260.0 min
Mus musculus [29] = assay: Antiosteoporotic activity against OVX-induced bone loss C57BL/6 mouse model assessed as decrease in PINP secretion in serum at 10 mg/kg, po QD for 4 weeks; assay type: functional, organism-based; details: dose 10.0 mg/kg/day
[30] = Inhibition of RANKL-induced NFkappaB signaling pathway in mouse RAW264.7 cells assessed as reduction in NFkappaB p65 phosphorylation preincubated for 4 hrs followed by RANKL stimulation for 10 mins and measured by Western blot analysis; assay type: cell-based; details: dose 1-10 µM, time 250.0 min
[31] = Toxicity in OVX-induced bone loss C57BL/6 mouse model assessed as effect on serum CHO level at 10 mg/kg, po QD for 4 weeks; assay type: organism-based; details: in vivo, 672 h, dose 10 mg/kg/day

Chain of Transcription factor p65 (Mus musculus) (Q04207 whole entry): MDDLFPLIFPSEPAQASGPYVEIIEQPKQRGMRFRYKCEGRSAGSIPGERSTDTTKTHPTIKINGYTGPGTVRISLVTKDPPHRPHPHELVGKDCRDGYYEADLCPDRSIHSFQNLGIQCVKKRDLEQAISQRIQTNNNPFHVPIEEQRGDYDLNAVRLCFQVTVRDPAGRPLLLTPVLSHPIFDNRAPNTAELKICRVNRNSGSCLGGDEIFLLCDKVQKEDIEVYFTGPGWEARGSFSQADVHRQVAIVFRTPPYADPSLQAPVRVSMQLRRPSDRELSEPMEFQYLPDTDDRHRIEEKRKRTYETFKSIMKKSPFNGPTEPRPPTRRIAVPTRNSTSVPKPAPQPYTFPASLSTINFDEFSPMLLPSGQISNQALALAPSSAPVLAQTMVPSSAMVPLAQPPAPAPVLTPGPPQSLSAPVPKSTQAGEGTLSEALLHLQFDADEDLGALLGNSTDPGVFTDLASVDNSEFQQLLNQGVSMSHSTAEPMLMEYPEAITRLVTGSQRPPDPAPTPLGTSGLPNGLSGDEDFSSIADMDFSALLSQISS

With `C=C1CC[C@@H]2[C@](C)(CNCc3ccc(F)cc3)[C@H](O)CC[C@@]2(C)[C@@H]1/C=C/C1=CCOC1=O` the Activity [1] was “Non-Toxic”, the inhibition [2] was “Active” and the Activity [3] was “Non-Toxic”. For the same compound, the Activity [4] was “Non-Toxic”, the Activity (BMMC [5]) was “Dose-Dependent Effect” and the Activity (Mus musculus [6]) was “Active”. The Activity (C3H 10T1/2 [7]) was “inactive”, the inhibition (BMMC [8]) was “Active” and the Activity (Mus musculus [9]) was “Active”. For the same compound, the Activity (C3H 10T1/2 [10]) was “inactive”, the Activity (Mus musculus [11]) was “Active” and the Activity (BMMC [12]) was “Non-Toxic”. For the same compound, the inhibition (BMMC [13]) was “Active”, the Activity [14] was “Non-Toxic” and the Activity [15] was “Non-Toxic”. The inhibition (BMMC [16]) was “Active”, the Activity [17] was “Non-Toxic” and the inhibition at 10 µM (BMMC [18]) was 100%. For the same compound, the Activity [19] was “Non-Toxic”, the Activity [20] was “Non-Toxic” and the Activity (Mus musculus [21]) was “Active”. For the same compound, the inhibition (RAW264.7 [22]) was “Active”, the Activity (BMMC [23]) was “Dose-Dependent Effect” and the Activity [24] was “Non-Toxic”. For the same compound, the inhibition [25] was “inactive”, the inhibition (BMMC [26]) was “Active” and the inhibition (RAW264.7 [27]) was “Active”. The inhibition (RAW264.7 [28]) was “inactive”, the Activity (Mus musculus [29]) was “Active” and the inhibition [30] was “Dose-Dependent Effect”. For the same compound, the Activity [31] was “Non-Toxic”.
